Measurements reported in ChEMBL document CHEMBL1201862, “PubChem BioAssay data set” (2004).
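Values below derive from 48-hour exposures of cells grown in 96-well plates, with endpoints linearly interpolated between the two concentrations bracketing the appropriate inhibition level. Abbreviation: GI50, concentration required for 50% inhibition of growth.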 Calls of active or inactive are those of the source. Rule as the data show it: active = GI50 up to about 1.1 µM and inactive = higher.

How the values were obtained:
Assay in all cases: NCI-60 cell line screen, 48 h
786-0 = tested on: 786-0
A498 = tested on: A498
A549 = tested on: A549
ACHN = tested on: ACHN
CCRF-CEM = tested on: CCRF-CEM
COLO 205 = tested on: COLO 205
DLD-1 = tested on: DLD-1
DMS-114 = tested on: DMS-114
DMS-273 = tested on: DMS-273
EKVX = tested on: EKVX
HCC 2998 = tested on: HCC 2998
HCT-116 = tested on: HCT-116
HL-60 = tested on: HL-60
HOP-92 = tested on: HOP-92
HT-29 = tested on: HT-29
IGROV-1 = tested on: IGROV-1
K562 = tested on: K562
KM12 = tested on: KM12
LOX IMVI = tested on: LOX IMVI
LXFL 529 = tested on: LXFL 529
M19-MEL = tested on: M19-MEL
MOLT-4 = tested on: MOLT-4
Malme-3M = tested on: Malme-3M
NCI-H23 = tested on: NCI-H23
NCI-H460 = tested on: NCI-H460
NCI-H522 = tested on: NCI-H522
OVCAR-4 = tested on: OVCAR-4
OVCAR-5 = tested on: OVCAR-5
OVCAR-8 = tested on: OVCAR-8
RPMI-8226 = tested on: RPMI-8226
RXF 393 = tested on: RXF 393
RXF 631 = tested on: RXF 631
SF-268 = tested on: SF-268
SF-295 = tested on: SF-295
SF-539 = tested on: SF-539
SK-MEL-28 = tested on: SK-MEL-28
SK-MEL-2 = tested on: SK-MEL-2
SK-MEL-5 = tested on: SK-MEL-5
SK-OV-3 = tested on: SK-OV-3
SN12C = tested on: SN12C
SNB-19 = tested on: SNB-19
SNB-75 = tested on: SNB-75
SNB-78 = tested on: SNB-78
SR = tested on: SR
SW-620 = tested on: SW-620
TK-10 = tested on: TK-10
U-251 = tested on: U-251
UACC-257 = tested on: UACC-257
UACC-62 = tested on: UACC-62
UO-31 = tested on: UO-31
XF498 = tested on: XF498
CAKI-1 = tested on: CAKI-1
HCT-15 = tested on: HCT-15
HOP-18 = tested on: HOP-18
HOP-62 = tested on: HOP-62
KM-20L2 = tested on: KM-20L2
M14 = tested on: M14
NCI-H226 = tested on: NCI-H226
OVCAR-3 = tested on: OVCAR-3

Compound: COc1ccc2oc(C(=O)O)c3c2c1CCC3CCC(=O)O (stereo not given)
- GI50 (786-0): > 100 µM (inactive)
- GI50 (A498): > 100 µM (inactive)
- GI50 (A549): > 100 µM (inactive)
- GI50 (ACHN): > 100 µM (inactive)
- GI50 (CCRF-CEM): > 100 µM (inactive)
- GI50 (COLO 205): > 100 µM (inactive)
- GI50 (DLD-1): > 100 µM (inactive)
- GI50 (DMS-114): > 100 µM (inactive)
- GI50 (DMS-273): > 100 µM (inactive)
- GI50 (EKVX): > 100 µM (inactive)
- GI50 (HCC 2998): > 100 µM (inactive)
- GI50 (HCT-116): > 100 µM (inactive)
- GI50 (HL-60): > 100 µM (inactive)
- GI50 (HOP-92): > 100 µM (inactive)
- GI50 (HT-29): > 100 µM (inactive)
- GI50 (IGROV-1): > 100 µM (inactive)
- GI50 (K562): > 100 µM (inactive)
- GI50 (KM12): > 100 µM (inactive)
- GI50 (LOX IMVI): > 100 µM (inactive)
- GI50 (LXFL 529): > 100 µM (inactive)
- GI50 (M19-MEL): > 100 µM (inactive)
- GI50 (MOLT-4): > 100 µM (inactive)
- GI50 (Malme-3M): > 100 µM (inactive)
- GI50 (NCI-H23): > 100 µM (inactive)
- GI50 (NCI-H460): > 100 µM (inactive)
- GI50 (NCI-H522): > 100 µM (inactive)
- GI50 (OVCAR-4): > 100 µM (inactive)
- GI50 (OVCAR-5): > 100 µM (inactive)
- GI50 (OVCAR-8): > 100 µM (inactive)
- GI50 (RPMI-8226): > 100 µM (inactive)
- GI50 (RXF 393): > 100 µM (inactive)
- GI50 (RXF 631): > 100 µM (inactive)
- GI50 (SF-268): > 100 µM (inactive)
- GI50 (SF-295): > 100 µM (inactive)
- GI50 (SF-539): > 100 µM (inactive)
- GI50 (SK-MEL-28): > 100 µM (inactive)
- GI50 (SK-MEL-2): > 100 µM (inactive)
- GI50 (SK-MEL-5): > 100 µM (inactive)
- GI50 (SK-OV-3): > 100 µM (inactive)
- GI50 (SN12C): > 100 µM (inactive)
- GI50 (SNB-19): > 100 µM (inactive)
- GI50 (SNB-75): > 100 µM (inactive)
- GI50 (SNB-78): > 100 µM (inactive)
- GI50 (SR): > 100 µM (inactive)
- GI50 (SW-620): > 100 µM (inactive)
- GI50 (TK-10): > 100 µM (inactive)
- GI50 (U-251): > 100 µM (inactive)
- GI50 (UACC-257): > 100 µM (inactive)
- GI50 (UACC-62): > 100 µM (inactive)
- GI50 (UO-31): > 100 µM (inactive)
- GI50 (XF498): > 100 µM (inactive)

Compound: Fc1cccc(C2SCc3nc4ccccc4n32)c1F (stereo not given)
- GI50 (786-0): 92.9 µM (inactive)
- GI50 (A498): 42.2 µM (inactive)
- GI50 (A549): 69 µM (inactive)
- GI50 (ACHN): 48.5 µM (inactive)
- GI50 (CAKI-1): 59.4 µM (inactive)
- GI50 (CCRF-CEM): 42 µM (inactive)
- GI50 (COLO 205): 80.5 µM (inactive)
- GI50 (DLD-1): > 100 µM (inactive)
- GI50 (DMS-114): 23.8 µM (inactive)
- GI50 (DMS-273): 19.4 µM (inactive)
- GI50 (EKVX): 36.6 µM (inactive)
- GI50 (HCC 2998): > 100 µM (inactive)
- GI50 (HCT-116): 48.5 µM (inactive)
- GI50 (HCT-15): 59.3 µM
- GI50 (HL-60): 16.1 µM (inactive)
- GI50 (HOP-18): 56.1 µM (inactive)
- GI50 (HOP-62): > 100 µM (inactive)
- GI50 (HOP-92): 23 µM (inactive)
- GI50 (HT-29): 79.4 µM (inactive)
- GI50 (IGROV-1): 73.8 µM (inactive)
- GI50 (K562): 33 µM (inactive)
- GI50 (KM-20L2): > 100 µM (inactive)
- GI50 (KM12): 66.1 µM (inactive)
- GI50 (LOX IMVI): 84.3 µM (inactive)
- GI50 (LXFL 529): 40.9 µM (inactive)
- GI50 (M14): 62.4 µM (inactive)
- GI50 (M19-MEL): 43.9 µM (inactive)
- GI50 (MOLT-4): 21.1 µM (inactive)
- GI50 (Malme-3M): 38 µM (inactive)
- GI50 (NCI-H226): 41.6 µM (inactive)
- GI50 (NCI-H23): 49.7 µM (inactive)
- GI50 (NCI-H460): 51.5 µM (inactive)
- GI50 (NCI-H522): 37.2 µM (inactive)
- GI50 (OVCAR-3): 29.1 µM (inactive)
- GI50 (OVCAR-4): 42.1 µM (inactive)
- GI50 (OVCAR-5): > 100 µM (inactive)
- GI50 (OVCAR-8): 69.3 µM (inactive)
- GI50 (RPMI-8226): 31.1 µM (inactive)
- GI50 (RXF 393): 54.2 µM (inactive)
- GI50 (RXF 631): 16.4 µM (inactive)
- GI50 (SF-268): 98.4 µM (inactive)
- GI50 (SF-295): 30.8 µM (inactive)
- GI50 (SF-539): > 100 µM (inactive)
- GI50 (SK-MEL-2): 7.52 µM (inactive)
- GI50 (SK-MEL-5): 21.6 µM (inactive)
- GI50 (SK-OV-3): > 100 µM (inactive)
- GI50 (SN12C): 89.7 µM (inactive)
- GI50 (SNB-19): > 100 µM (inactive)
- GI50 (SNB-75): > 100 µM (inactive)
- GI50 (SNB-78): 32.6 µM (inactive)
- GI50 (SR): 28.4 µM (inactive)
- GI50 (SW-620): > 100 µM (inactive)
- GI50 (TK-10): 42 µM (inactive)
- GI50 (U-251): 82.8 µM (inactive)
- GI50 (UACC-257): 32.7 µM (inactive)
- GI50 (UACC-62): 63.5 µM (inactive)
- GI50 (UO-31): 41.9 µM (inactive)

Compound: Cc1ccc(NC(=O)/C(C#N)=C/c2ccccc2)c(C)c1
- GI50 (786-0): > 100 µM (inactive)
- GI50 (A498): > 100 µM (inactive)
- GI50 (A549): > 100 µM (inactive)
- GI50 (ACHN): > 100 µM (inactive)
- GI50 (CAKI-1): > 100 µM (inactive)
- GI50 (CCRF-CEM): > 100 µM (inactive)
- GI50 (COLO 205): > 100 µM (inactive)
- GI50 (DLD-1): > 100 µM (inactive)
- GI50 (DMS-114): > 100 µM (inactive)
- GI50 (DMS-273): > 100 µM (inactive)
- GI50 (EKVX): > 100 µM (inactive)
- GI50 (HCC 2998): > 100 µM (inactive)
- GI50 (HCT-116): > 100 µM (inactive)
- GI50 (HCT-15): > 100 µM
- GI50 (HL-60): > 100 µM (inactive)
- GI50 (HOP-18): > 100 µM (inactive)
- GI50 (HOP-62): > 100 µM (inactive)
- GI50 (HOP-92): > 100 µM (inactive)
- GI50 (HT-29): > 100 µM (inactive)
- GI50 (IGROV-1): > 100 µM (inactive)
- GI50 (K562): > 100 µM (inactive)
- GI50 (KM-20L2): > 100 µM (inactive)
- GI50 (KM12): > 100 µM (inactive)
- GI50 (LXFL 529): > 100 µM (inactive)
- GI50 (M14): > 100 µM (inactive)
- GI50 (M19-MEL): > 100 µM (inactive)
- GI50 (MOLT-4): > 100 µM (inactive)
- GI50 (Malme-3M): > 100 µM (inactive)
- GI50 (NCI-H226): > 100 µM (inactive)
- GI50 (NCI-H23): > 100 µM (inactive)
- GI50 (NCI-H460): > 100 µM (inactive)
- GI50 (NCI-H522): > 100 µM (inactive)
- GI50 (OVCAR-3): > 100 µM (inactive)
- GI50 (OVCAR-4): > 100 µM (inactive)
- GI50 (OVCAR-5): > 100 µM (inactive)
- GI50 (OVCAR-8): > 100 µM (inactive)
- GI50 (RPMI-8226): > 100 µM (inactive)
- GI50 (RXF 393): > 100 µM (inactive)
- GI50 (SF-268): > 100 µM (inactive)
- GI50 (SF-295): > 100 µM (inactive)
- GI50 (SF-539): > 100 µM (inactive)
- GI50 (SK-MEL-28): > 100 µM (inactive)
- GI50 (SK-MEL-2): > 100 µM (inactive)
- GI50 (SK-MEL-5): > 100 µM (inactive)
- GI50 (SK-OV-3): > 100 µM (inactive)
- GI50 (SN12C): > 100 µM (inactive)
- GI50 (SNB-19): > 100 µM (inactive)
- GI50 (SNB-75): > 100 µM (inactive)
- GI50 (SNB-78): > 100 µM (inactive)
- GI50 (SR): > 100 µM (inactive)
- GI50 (SW-620): > 100 µM (inactive)
- GI50 (TK-10): > 100 µM (inactive)
- GI50 (U-251): > 100 µM (inactive)
- GI50 (UACC-257): > 100 µM (inactive)
- GI50 (UACC-62): > 100 µM (inactive)
- GI50 (UO-31): > 100 µM (inactive)
- GI50 (XF498): > 100 µM (inactive)
